Results on 13 molecules are retold here after patent publication US20240058450A1, “BCL-XL Inhibitory Compounds Having Low Cell Permeability and Antibody Drug Conjugates Including the Same” (AbbVie Inc., priority 2014, published 2024).

Experiment [1] has as its system Molt-4 human acute lymphoblastic leukemia cells. Kind of experiment: Molt-4 cell viability assay (CellTiter-Glo, 48 hours, 10% HS). The experiment is classed as cell-based. As to conditions: Homo sapiens, MOLT-4, 48 h, non-permeabilized cells. The procedure:
The ability of Bcl-xL inhibitors that are able to traverse cell membranes to inhibit Bcl-xL can be determined in cell-based killing assays using a variety of cell lines and mouse tumor models. For example, their activity on cell viability can be assessed on a panel of cultured tumorigenic and non-tumorigenic cell lines, as well as primary mouse or human cell populations.
In one exemplary set of conditions, Molt-4 (ATCC, Manassas, VA) human acute lymphoblastic leukemia cells were plated 12,500 cells per well in 384-well tissue culture plates (Corning, Corning, NY) in a total volume of 25 μL tissue culture medium supplemented with 10% human serum (Sigma-Aldrich, St. Louis, MO) and treated with a 3-fold serial dilution of the compounds of interest from 10 μM to 0.0005 μM. Each concentration was tested in duplicate at least 3 separate times. The number of viable cells following 48 hours of compound treatment was determined using the CellTiter-Glo®, Luminescent Cell Viability Assay according to the manufacturer's recommendations (Promega Corp., Madison, WI). Compounds were tested in the presence of 10% HS.

For the next experiment, the target named is Bcl-xL (Homo sapiens, UniProt Q07817). Kind of experiment: Time Resolved-Fluorescence Resonance Energy Transfer (TR-FRET) binding assay, competition with probe F-Bak. The protocol:
Tb-anti-GST antibody was purchased from Invitrogen (Catalog No. PV4216).
For the assay, test compounds were serially diluted in DMSO starting at 50 μM (2× starting concentration; 10% DMSO) and 10 μL transferred into a 384-well plate. 10 μL of a protein/probe/antibody mix was then added to each well at final concentrations listed below:
The samples were then mixed on a shaker for 1 minute and incubated for an additional 2 hours at room temperature. For each assay plate, a probe/antibody and protein/antibody/probe mixture were included as a negative and a positive control, respectively. Fluorescence was measured on the Envision (Perkin Elmer) using a 340/35 nm excitation filter and 520/525 (F-Bak) and 495/510 nm (Tb-labeled anti-his antibody) emission filters. Dissociation constants (Ki) were determined using Wang's equation (Wang, 1995, FEBS Lett. 360:111-114). The TR-FRET assay can be performed in the presence of varying concentrations of human serum (HS) or fetal bovine serum (FBS). Compounds were tested both without HS and in the presence of 1% HS.
On the technique in general: Time-resolved FRET reads energy transfer from a long-lived donor to a nearby acceptor.

The mark [2] stands for this setting: in the presence of 1% HS, read-out: Bcl-xL Binding Ki (nM, 1% HS).
[3] abbreviates: without HS, read-out: Bcl-xL Binding Ki.

Each structure is given as a SMILES string. Like-named read-outs stand apart in the source and are kept apart here.

Chain of Bcl-xL (Q07817 whole entry): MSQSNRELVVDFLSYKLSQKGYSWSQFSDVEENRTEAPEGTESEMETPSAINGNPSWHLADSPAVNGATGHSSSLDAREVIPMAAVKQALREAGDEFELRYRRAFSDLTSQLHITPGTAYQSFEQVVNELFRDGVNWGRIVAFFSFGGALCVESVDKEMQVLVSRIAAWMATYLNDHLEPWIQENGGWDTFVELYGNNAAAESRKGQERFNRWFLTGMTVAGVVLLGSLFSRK

Regarding `Cc1c(-c2ccc(N3CCc4cccc(C(=O)Nc5nc6ccccc6s5)c4C3)nc2C(=O)O)cnn1CC12CC3(C)CC(C)(C1)CC(OCCN(CCC(=O)O)C1CCNCC1)(C3)C2` [Example 1.36, 6-[8-(1,3-benzothiazol-2-ylcarbamoyl)-3,4-dihydroisoquinolin-2 (1H)-yl]-3-{1-[(3-{2-[(2-carboxyethyl)(piperidin-4-yl)amino]ethoxy}-5,7-dimethyltricyclo[3.3.1.1^3,7]dec-1-yl)methyl]-5-methyl-1H-pyrazol-4-yl}pyridine-2-carboxylic acid], in experiment [1], the EC50 (in general, the midpoint of the concentration-response curve) stood at 405 nM. In addition, the Ki (in general, the dissociation constant of the complex between target and ligand, obtained from inhibition or displacement) at Bcl-xL (setting [2]) was 0.0635 nM; at Bcl-xL (setting [3]), under 0.001 nM.
The matching figures for `Cc1c(-c2ccc(N3CCc4cccc(C(=O)Nc5nc6ccccc6s5)c4C3)nc2C(=O)O)cnn1CC12CC3(C)CC(C)(C1)CC(OCCN(CCS(=O)(=O)O)C(=O)[C@@H](N)CS(=O)(=O)O)(C3)C2` [Example 1.37, 6-[8-(1,3-benzothiazol-2-ylcarbamoyl)-3,4-dihydroisoquinolin-2 (1H)-yl]-3-{1-[(3,5-dimethyl-7-{2-[(3-sulfo-L-alanyl)(2-sulfoethyl)amino]ethoxy}tricyclo[3.3.1.1^3,7]dec-1-yl)methyl]-5-methyl-1H-pyrazol-4-yl}pyridine-2-carboxylic acid]: 805 nM, 0.294 nM and under 0.001 nM.
In the case of `Cc1c(-c2ccc(N3CCc4cccc(C(=O)Nc5nc6cccnc6s5)c4C3)nc2C(=O)O)cnn1CC12CC3(C)CC(C)(C1)CC(OCCNCCCP(=O)(O)O)(C3)C2` [Example 1.40, 3-{1-[(3,5-dimethyl-7-{2-[(3-phosphonopropyl)amino]ethoxy}tricyclo[3.3.1.1^3,7]dec-1-yl)methyl]-5-methyl-1H-pyrazol-4-yl}-6-[8-([1,3]thiazolo[5,4-b]pyridin-2-ylcarbamoyl)-3,4-dihydroisoquinolin-2 (1H)-yl]pyridine-2-carboxylic acid], the EC50 in experiment [1] was determined as 6480 nM. For the same molecule, the Ki on Bcl-xL (setting [2]) is 6.28 nM; at Bcl-xL (setting [3]), under 0.001 nM.
The matching figures for `Cc1c(-c2ccc(N3CCc4cccc(C(=O)Nc5nc6ccccc6s5)c4C3)nc2C(=O)O)cnn1CC12CC3(C)CC(C)(C1)CC(OCCN(CCCC(=O)O)C1CCNCC1)(C3)C2` [Example 1.42, 6-[8-(1,3-benzothiazol-2-ylcarbamoyl)-3,4-dihydroisoquinolin-2 (1H)-yl]-3-{1-[(3-{2-[(3-carboxypropyl)(piperidin-4-yl)amino]ethoxy}-5,7-dimethyltricyclo[3.3.1.1^3,7]dec-1-yl)methyl]-5-methyl-1H-pyrazol-4-yl}pyridine-2-carboxylic acid]: 482 nM, 0.133 nM and under 0.001 nM.
The matching figures for `Cc1c(-c2ccc(-c3ccc4cccc(C(=O)Nc5nc6ccccc6s5)c4c3)nc2C(=O)O)cnn1CC12CC3(C)CC(C)(C1)CC(OCCNCCS(=O)(=O)O)(C3)C2` [Example 1.43, 6-[8-(1,3-benzothiazol-2-ylcarbamoyl)naphthalen-2-yl]-3-{1-[(3,5-dimethyl-7-{2-[(2-sulfoethyl)amino]ethoxy}tricyclo[3.3.1.1^3,7]dec-1-yl)methyl]-5-methyl-1H-pyrazol-4-yl}pyridine-2-carboxylic acid]: 185 nM, 0.86 nM and under 0.001 nM.
For `Cc1c(-c2ccc(N3CCc4cccc(C(=O)Nc5nc6ccccc6s5)c4C3)nc2C(=O)O)cnn1CC12CC3(C)CC(C)(C1)CC(OCCN(CCNCCS(=O)(=O)O)CCS(=O)(=O)O)(C3)C2` [Example 1.48, 6-[8-(1,3-benzothiazol-2-ylcarbamoyl)-3,4-dihydroisoquinolin-2 (1H)-yl]-3-{1-[(3,5-dimethyl-7-{2-[(2-sulfoethyl){2-[(2-sulfoethyl)amino]ethyl}amino]ethoxy}tricyclo[3.3.1.1^3,7]dec-1-yl)methyl]-5-methyl-1H-pyrazol-4-yl}pyridine-2-carboxylic acid] the same measures were 692 nM, 0.497 nM and under 0.001 nM.
The molecule `Cc1c(-c2ccc(N3CCc4cccc(C(=O)Nc5nc6ncccc6s5)c4C3)nc2C(=O)O)cnn1CC12CC3(C)CC(C)(C1)CC(OCCN(CCCP(=O)(O)O)C1CCNCC1)(C3)C2` [Example 1.50, 3-{1-[(3,5-dimethyl-7-{2-[(3-phosphonopropyl)(piperidin-4-yl)amino]ethoxy)tricyclo[3.3.1.1^3,7]dec-1-yl)methyl]-5-methyl-1H-pyrazol-4-yl}-6-[8-([1,3]thiazolo[4,5-b]pyridin-2-ylcarbamoyl)-3,4-dihydroisoquinolin-2 (1H)-yl]pyridine-2-carboxylic acid] gave an EC50 in experiment [1] of 2770 nM. In addition, the Ki on Bcl-xL (setting [2]) turned out to be 0.051 nM; at Bcl-xL (setting [3]) it was 0.0073 nM.
The matching figures for `Cc1c(-c2ccc(-c3ccc4c(c3)N(C(=O)Nc3nc5ccccc5s3)CCO4)nc2C(=O)O)cnn1CC12CC3(C)CC(C)(C1)CC(OCCNCCS(=O)(=O)O)(C3)C2` [Example 1.51, 6-[4-(1,3-benzothiazol-2-ylcarbamoyl)-3,4-dihydro-2H-1,4-benzoxazin-6-yl]-3-{1-[(3,5-dimethyl-7-{2-[(2-sulfoethyl)amino]ethoxy}tricyclo[3.3.1.1^3,7]dec-1-yl)methyl]-5-methyl-1H-pyrazol-4-yl}pyridine-2-carboxylic acid]: 555 nM, 0.17 nM and under 0.001 nM.
In the case of `CNCCOC12CC3(C)CC(C)(CC(Cn4ncc(-c5ccc(N6CCc7c(OCCCS(=O)(=O)O)ccc(C(=O)Nc8nc9ccccc9s8)c7C6)nc5C(=O)O)c4C)(C3)C1)C2` [Example 1.52, 6-[8-(1,3-benzothiazol-2-ylcarbamoyl)-5-(3-sulfopropoxy)-3,4-dihydroisoquinolin-2 (1H)-yl]-3-[1-({3,5-dimethyl-7-[2-(methylamino)ethoxy]tricyclo[3.3.1.1^3,7]dec-1-yl}methyl)-5-methyl-1H-pyrazol-4-yl]pyridine-2-carboxylic acid], the EC50 in experiment [1] was 973 nM. Besides, the Ki is 0.0329 nM at Bcl-xL (setting [2]) and under 0.001 nM at Bcl-xL (setting [3]).
For `Cc1c(-c2ccc(-c3ccc4c(c3)N(C(=O)Nc3nc5ncccc5s3)CCC4)nc2C(=O)O)cnn1CC12CC3(C)CC(C)(C1)CC(OCCNCCS(=O)(=O)O)(C3)C2` [Example 1.53, 3-{1-[(3,5-dimethyl-7-{2-[(2-sulfoethyl)amino]ethoxy}tricyclo[3.3.1.1^3,7]dec-1-yl)methyl]-5-methyl-1H-pyrazol-4-yl}-6-[1-([1,3]thiazolo[4,5-b]pyridin-2-ylcarbamoyl)-1,2,3,4-tetrahydroquinolin-7-yl]pyridine-2-carboxylic acid] the same measures were 462 nM, 0.088 nM and under 0.001 nM.
As for `Cc1c(-c2ccc(-c3ccc4cccc(C(=O)Nc5nc6ncccc6s5)c4c3)nc2C(=O)O)cnn1CC12CC3(C)CC(C)(C1)CC(OCCNCCS(=O)(=O)O)(C3)C2` [Example 1.54, 3-{1-[(3,5-dimethyl-7-[2-[(2-sulfoethyl)amino]ethoxy}tricyclo[3.3.1.1^3,7]dec-1-yl)methyl]-5-methyl-1H-pyrazol-4-yl}-6-[8-([1,3]thiazolo[4,5-b]pyridin-2-ylcarbamoyl)naphthalen-2-yl]pyridine-2-carboxylic acid], in experiment [1], the EC50 is over 10000 nM. In addition, the Ki at Bcl-xL (setting [2]) was 0.11 nM; on Bcl-xL (setting [3]), under 0.001 nM.
In turn, `Cc1c(-c2ccc(N3CCc4c(CC5O[C@H](CO)[C@@H](O)[C@H](O)[C@H]5O)ccc(C(=O)Nc5nc6ccccc6s5)c4C3)nc2C(=O)O)cnn1CC12CC3(C)CC(C)(C1)CC(OCCN)(C3)C2` (stereo partly drawn) [Example 1.55, (1ξ)-1-({2-[5-(1-{[3-(2-aminoethoxy)-5,7-dimethyltricyclo[3.3.1.1^3,7]dec-1-yl]methyl}-5-methyl-1H-pyrazol-4-yl)-6-carboxypyridin-2-yl]-8-(1,3-benzothiazol-2-ylcarbamoyl)-1,2,3,4-tetrahydroisoquinolin-5-yl}methyl)-1,5-anhydro-D-glucitol] displayed an EC50 in experiment [1] of 73 nM. Moreover, the Ki on Bcl-xL (setting [2]) and on Bcl-xL (setting [3]) was 0.039 nM in each case.
Regarding `Cc1c(-c2ccc(N3CCc4cccc(C(=O)Nc5nc6ccccc6s5)c4C3)nc2C(=O)O)cnn1CC12CC3(C)CC(C)(C1)CC(OCCNCCCC(=O)O)(C3)C2` [Example 1.56, 6-[8-(1,3-benzothiazol-2-ylcarbamoyl)-3,4-dihydroisoquinolin-2 (1H)-yl]-3-{1-[(3-{2-[(3-carboxypropyl)amino]ethoxy}-5,7-dimethyltricyclo[3.3.1.1^3,7]dec-1-yl)methyl]-5-methyl-1H-pyrazol-4-yl}pyridine-2-carboxylic acid], the response in experiment [1] was half-maximal at 196 nM (EC50). The Ki was 0.123 nM on Bcl-xL (setting [2]) and under 0.001 nM on Bcl-xL (setting [3]).
